In patent US20030176316A1, “Methods for treatment of rheumatoid arthritis” (priority 2001, published 2003):
Structures can show the parent of a compound that is named as a salt. Where two headings read alike, the source gives them in different places.

Legend:
[1] = target: T1, GST-cGB-PDE5 fusion protein (cGMP binding sites of human PDE5A) (Homo sapiens, UniProt O76074); test: cGMP binding assay with GST-cGB-PDE5 fusion protein
T1 construct: made in house; host or cells: E. coli BL21 (DE3)
Text: RT-PCR method is used to obtain the cGB domain of PDE5 with forward and reverse primers designed from bovine PDE5A cDNA sequence (McAllister-Lucas L. M. et al., J Biol. Chem. 268, 22863-22873, 1993) and the selection among PDE 1-10 families. 5′-3′, Inc. kits for total RNA followed by oligo (dT) column purification of mRNA are used with HT-29 cells. […] It is then cloned into pGEX-5×-3 glutathione-S-transferase (GST) fusion vector (Pharmacia Biotech )with tac promoter, and EcoRI and XhoI cut sites. The fusion vector is then transfected into E. Coli BL21 (DE3) bacteria (Invitrogen). The transfected BL21 bacteria is grown to log phase, and then IPTG is added as an induce. The induction is carried at 20° C. for 24 hrs. The bacteria are harvested and lysed. The soluble cell lysate is incubated with GSH conjugated Sepharose 4B (GSH-Sepharose 4B). The GST-cGB-PDE5 fusion protein can bind to the GSH-Sepharose beads, and the other proteins are washed off from beads with excessive cold PBS.
Then, the mixture is transferred to Brandel MB-24 cell harvester with GF/B as the filter membrane followed by 2 washes with 10 mL of cold 5 mM potassium buffer(pH 6.8). The membranes are then cut out and transferred to scintillation, vials followed by the addition of 1 mL of H2O and 6 mL of Ready Safe™ liquid scintillation cocktail to each vial. The vials are counted on a Beckman LS 6500 scintillation counter.
The quenching by filter membrane or other debris are also calibrated.

[2] = target: PDE 5 (Homo sapiens, UniProt O76074); test: competitive (with cGMP) binding to PDE5
[3] = seven-day dose-range finding study in rats; type: in vivo; settings: seven days, 2000 mg/kg/day
[4] = 28-day study in rats; type: in vivo; settings: 28 days, 50 and 500 mg/kg/day
Protocol: A 28-day study in rats was also carried out at 0, 50, 500 and 2000 mg/kg/day.

[5] = long-term safety assessment study in rats, 91 days; type: in vivo
Text: These changes were not associated with any gross clinical abnormality.

[6] = 91-day oral study in dogs; type: in vivo; settings: 91 days, highest dose group
[7] = test system: U937 cells; test: apoptosis induction of U937 cells (active caspase 3, indirect immunofluorescence); type: cell-based; settings: 24 hours
Protocol: U937 cells (from ATCC Rockville, Md.) were grown in RPMI media supplemented with 5% FCS, glutamine, antibiotic/antimycotic and sodium pyruvate. Total RNA was isolated from two U937 cultures, one treated with 5nM TPA for 48 hours and one grown in normal media as listed above, using the Rouche High Pure RNA Isolation Kit (cat# 1 828 665) as per manufacturers protocol. cDNA was then synthesized from the total RNA using GibcoBRL Superscriptll (Cat# 18064-022) reverse transcriptase as per manufacturers protocol. The resulting cDNA was used as a template for RT-PCR reactions using primer sets specific for PDE2 (forward: […], reverse: […]) or PDE5 (forward: […], reverse: […]). mRNA for PDE2 and 5 were both present in the untreated U937 cells. Upon treatment with TPA, the relative amounts of PDE2 mRNA increased 5 fold. Therefore, U937 cells treated with TPA and driven to differentiate into an activated macrophage like state have elevated levels of PDE2 mRNA (see FIG. 1).
The presence of PDE2 and PDE5 protein within U937 cells was confirmed by indirect immunofluorescence (IIF). U937 cells were cultured as above. Two U937 cultures, one grown in the presence of 5 nM TPA for 48 hours and one grown in normal media were processed. All cultures were collected by centrifugation (Shandon Cytospin, 2 minutes @ 600 rpm) onto poly-L lysine-coated slides and immediately fixed in fresh 3% paraformaldehyde buffered in PBS for 10 minutes. Adherent cultures were grown on coverslips and fixed as above. Cells were permeablized in 0.2% triton-100 for 2 minutes. Slides were blocked with blocking buffer (5% goat serum, 5% glycerol, 1% gelatin from cold water fish skin and 0.04% NaN3 in PBS) for 1 hour at room temperature.
Slides were then incubated for 1 hour at 37° C. in a humid chamber with antibodies specific for PDE2 (generated in a sheep against the peptide […]) or PDE5 (generated in sheep against the peptide […]). […]
The level of apoptosis in U937 cells was quantified by scoring 500 consecutive cells for the presence of active caspase 3. […]

SMILES: CCCCOC1C2OP(=O)(O)OCC2OC1n1cnc2c(N)ncnc21 (centres unmarked) [2′-O-butyl-cAMP]
- competition with cGMP in binding to the cGMP binding sites of GST-cGB-PDE5 ([1]; 3H-cGMP 2 μM, 22° C., 1 hour): did not compete with cGMP in binding

SMILES: CCCCOC1C2OP(=O)(O)OCC2OC1n1cnc2c(=O)[nH]c(N)nc21 (centres unmarked) [2′-O-butyl-cGMP]
- competition with cGMP in binding to the cGMP binding sites of GST-cGB-PDE5 ([1]; 3H-cGMP 2 μM, 22° C., 1 hour): did not compete with cGMP in binding

SMILES: Nc1ncnc2c1ncn2[C@@H]1O[C@@H]2COP(=O)(O)O[C@H]2[C@H]1O [Cyclic AMP]
- competition with cGMP in binding to the cGMP binding sites of GST-cGB-PDE5 [1]: did not compete with cGMP in binding

SMILES: CC1=C(CC(=O)NCc2ccccc2)c2cc(F)ccc2/C1=C\c1ccncc1 [Example 38, (Z)-5-Fluoro-2-Methyl-(4-Pyridylidene)-3-(N-Benzyl) Indenylacetamide Hydrochloride]
- competition with cGMP in binding to the cGMP binding sites of GST-cGB-PDE5 ([1]; 3H-cGMP 2 μM, 22° C., 1 hour): does not bind to the cGMP-binding site of PDE5
- competitive (with cGMP) binding to PDE 5 [2]: does competitively (with cGMP) bind to PDE 5
- effects [3]: labored breathing and/or abnormal respiratory sounds, decreased weights gains and food consumption ion male rats, and increased liver weights in female rats
- liver and thyroid weight increases at the lower doses [4]: not statistically significant
- clinical biochemistry and hematology [5]: no changes in clinical biochemistry and hematology were evident
- microscopic alterations of the liver [6]: no microscopic alterations
- apoptosis, fluorescent image of active caspase 3 (FIG. 8) ([7]; 1 μM): undergoing apoptosis as reflected by the presence of active caspase 3

SMILES: Nc1ccn([C@@H]2O[C@@H]3COP(=O)(O)O[C@H]3[C@H]2O)c(=O)n1 [cCMP, cyclic CMP]
- competition with cGMP in binding to the cGMP binding sites of GST-cGB-PDE5 ([1]; 3H-cGMP 2 μM, 22° C., 1 hour): did not compete with cGMP in binding

SMILES: O=c1ccn([C@@H]2O[C@@H]3COP(=O)(O)O[C@H]3[C@H]2O)c(=O)[nH]1 [cUMP, cyclic UMP]
- competition with cGMP in binding to the cGMP binding sites of GST-cGB-PDE5 ([1]; 3H-cGMP 2 μM, 22° C., 1 hour): did not compete with cGMP in binding

SMILES: COc1ccc(C2CNC(=O)C2)cc1OC1CCCC1 (centres unmarked) [rolipram]
- levels of apoptosis (active caspase 3) ([7]; 0.5 μM): No increase in the levels of apoptosis compared to normal background

SMILES: CCCc1nn(C)c2c(=O)[nH]c(-c3cc(S(=O)(=O)N4CCN(C)CC4)ccc3OCC)nc12 [sildenafil]
- levels of apoptosis (active caspase 3) ([7]; 0.3 nM): No increase in the levels of apoptosis compared to normal background
